Experimental data from patent US12465618B2, “Compositions and methods for degenerative disc regeneration” (University Health Network, priority 2015, dated 2025).
Where two headings read alike, the source gives them in different places.

Columns and labels:
rat NP cells [1] = assay: ECM and cell adhesion molecule gene array, real time quantitative PCR; assay type: cell-based; details: 24 hrs, vs no treatment control
Procedure: To determine the effect of IL-1β and TNFα on ECM turnover, rat NP cells were treated with IL-1β alone or in combination with TNFα for 24 hrs and real time quantitative PCR was performed using the ECM and cell adhesion molecule gene arrays (includes 84 genes).
(§1) After euthanasia, healthy rat lumbar/caudal spine IVDs, injured tail discs and bovine caudal IVD NPs were removed aseptically and the nucleus pulposus (NP) was removed separately and enzymatically digested according to methods established by the present inventors^16. Similarly, human degenerative disc NPs were enzymatically digested using Pronase (0.4%, 1 hr at 37° C.) followed by Collagenase II treatment (0.015%, O/N, 37° C.). The following day, the cells were filtered with a 70p cell strainer and cultured within a hypoxic incubator (NuAire, MN, USA) in 3.5% O2, 5% CO2, in Advanced Dulbecco's modified Eagle's medium (ADMEM) supplemented with 8% fetal bovine serum (FBS) and penicillin and streptomycin (100 U/mL). For treatments, the cells were either cultured in serum free ADMEM (no treatment controls) or treated with interleukin-1β (IL-1β, 10 ng/mL), tumor necrosis factor-alpha (TNFα, 50 ng/mL), connective tissue growth factor (CTGF, 10-100 ng/mL), Wnt-inducible soluble protein 2 (WISP2, 10-100 ng/mL) or transforming growth factor beta 1 (TGFβ1, 5-20 ng/mL) for various time points under hypoxic conditions.
Total RNA from healthy and treated (IL-1β alone or in combination with TNFα) rat NP cells, were isolated using RNAeasy extraction kit (Cat #74134, Qiagen) and quantified using a Nanodrop spectrophotometer. Total RNA (˜400 ng) was reverse-transcribed using RT^2 First Strand Kit (Cat #330401, Qiagen) following the manufacturer's instructions for preparing cDNA. To evaluate the effect of IL-1β alone or in combination with TNFα on extra-cellular matrix (ECM) genes in rat NP cells, the RT^2 Profiler™ PCR Array Rat Extracellular Matrix & Adhesion Molecules (PARN-013Z, Qiagen) was used and compared with no treatment controls (NTC) in 3 independent experiments using real time PCR performed on ABI 7900HT 384-well Fast block machine. Data analysis including calculation of ΔΔCt values, fold changes and p-values was carried out using software available online (https://www.qiagen.com/ca). Total RNA was isolated from human degenerative disc NP cells (H1/H2) treated with CTGF, TGFβ1, CTGF+TGFβ1 to evaluate their effect on collagen 2, HAPLN1, versican and thrombospondin 1 using gene specific primers. Similarly, RNA was isolated from human NP cells were treated with […] alone or in combination TNFα in presence of CTGF and TGFβ1 to determine their effect on Cox2 and MMP-13 expression using qRT-PCR.

rat NP cells [2] = assay: Western blotting of rat NP cells treated with IL-1β/TNFα with or without inhibitors or growth factors; assay type: cell-based
Procedure: as §1
(§2) Equal amounts of whole cell or tissue lysates prepared using RIPA lysis buffer were subjected to Western blotting as described earlier^18,19. Total lysates (30 μg) were resolved on 10% sodium dodecyl sulphate-polyacrylamide gels (SDS-PAGE) under reducing conditions and then proteins were electro-transferred onto polyvinyledendifluoride (PVDF) membranes (BioRad, CA). After blocking with 5% non-fat powdered milk in Tris-buffered saline (TBS, 0.1 M, pH=7.4), blots were incubated with rabbit or goat polyclonal/mouse monoclonal primary antibodies at 4° C. overnight. […] Blots were washed three times with TTBS for 15 minutes and protein bands were detected by the enhanced chemiluminescence method (BioRad, CA) on Kodak Hyperfilm.

[3] = tested on: human degenerative disc NP cells; assay: Western blotting of human degenerative disc NP cells; assay type: cell-based; details: IL-1β and TNFα, Western blots, FIG. 2h
Procedure: as §1, §2

[4] = tested on: rat-tail injured disc NPs; assay: Pre-clinical rodent needle puncture disc injury model of DDD, intra-discal injection; assay type: in vivo, Wistar rat
Procedure: 12-week old female Wistar rats (Charles River Laboratories International, Inc., MA, USA) were used in order to develop a pre-clinical rodent model of DDD and to evaluate the therapeutic potential of NCCM, CTGF and TGFβ1 in these pre-clinical rodent models. Experiments were performed in accordance with the Guide for the Care and Use of Laboratory Animals, and the experimental protocols were approved by the ethics approval board of Toronto Western Hospital, Toronto, ON, Canada. The surgical procedure was as follows: Anesthesia was achieved using isofluorane (5 L/min plus 1 L/min O2) and maintained at 3 L/min. Once deeply anaesthetized, the animal was affixed on a stereotactic procedure apparatus (Model 900, Kopf Instruments California USA) with nose cone inhalation. For animal experiments, the tail was shaved and prepped with isopropanol in a sterile manner. Fluoroscopy was used to visualize needle penetration and to ensure that the needle penetrated into the center of the NP. For disc injury, a 26-gauge (G), 35° beveled, 0.75 inches high needle (Hamilton Company, USA) mounted on a Hamilton syringe was used. The needle was advanced completely through the selected tail IVD to penetrate the full thickness inclusive of the annulus fibrosus on both sides of the disc. Confirmation of needle placement was made using fluoroscopy and maintained in position for 2 minutes, withdrawn halfway to the center of the NP and left there for 1 minute and then slowly withdrawn completely over a 1-minute period. The animals were then removed from the stereotactic apparatus and allowed to recover in a warmed cage. At the end of study period i.e. 72 hrs-10 weeks, animals were humanely euthanized using CO2 and each vertebral lumbar/caudal motion segment was dissected aseptically. IVDs were either fixed in formalin for histological analysis or the nucleus pulposus (healthy/injured) was harvested and lysed in RIPA buffer (50 mM Tris, pH=7.4, 150 mM NaCl, 1% NP-40 and protease inhibitor cocktail) for western blotting.
To determine the regenerative potential of NCCM, CTGF or TGFβ1, 4 IVDs per animal of 12 week old rats were injured using a 26G needle as described above. Four weeks post-injury, animals were randomized into groups of six and an intra-discal injection (˜8 μL) of either NCCM, CTGF (100 ng/mL) or TGFβ1 (10 ng/mL) was given under local anesthesia. For NCCM injected animals, the control group consisted of animals that received an intra-discal injection (˜8 μL) of Hybridoma culture medium only, while phosphate buffered saline (PBS, 1×, pH=7.2) served as control for CTGF and TGFβ1 injected animal groups. Six weeks later, the NPs from injured and control discs were harvested and either fixed in formalin for histological analysis or lysed in RIPA lysis buffer for western blotting. Each of this experiment was repeated independently to ensure reproducibility.
The tissues were fixed in 10% formalin and decalcified in 10% EDTA solution. The decalcified disc was initially split in the mid sagittal plane, embedded in paraffin and 5p thick sections were obtained for histological evaluation. Hemaetoxylin and eosin (H&E) and Safranin-O staining was performed to assess general morphology and proteoglycan content in these tissue sections as previously described^16. For immunohistochemistry/immunofluorescence (IF), paraffin-embedded sections (5 μm) of human degenerative disc NP, bovine NP, healthy canines (NCD) and rat (healthy/injured) discs were deparaffinized in xylene, hydrated in gradient alcohol followed by antigen retrieval in Tris-EDTA buffer (pH=9.0). The sections were incubated with hydrogen peroxide (0.3% v/v) in methanol for 15 minutes to quench the endogenous peroxidase activity, followed by blocking with 10% serum to preclude non-specific binding. Thereafter, the slides were incubated with either rabbit or goat polyclonal/mouse monoclonal primary antibodies overnight (O/N) at 4° C. […]

[5] = tested on: bovine degenerative disc NP cells; assay: MTT cell viability assay; assay type: cell-based; details: CTGF 100 ng/ml, TGFβ1 10 ng/ml, 48 hrs-72 hrs
Procedure: (§3) Nucleus pulposus cells (rat, bovine and human) were plated in 96-well flat bottom plates in order to evaluate the effect of treatment with growth factors in cell viability and proliferation assays. Rat NP cells were treated with CTGF, WISP-2 and TGFβ1 in a dose (1 ng/mL-100 ng/mL) and time dependent manner (24 hrs-96 hrs) to determine the optimum dose and time for the assessment of these growth factors on viability. Cell viability was determined using 3-(4,5-dimethylthiazol-2-yl)-2,5-diphenyltetrazolium bromide (MTT, Sigma-Aldrich, USA) as previously described^44. A BrdU-ELISA (colorimetric) assay (Cat #ab126556, Abcam) was used for determining the effect of treatment with CTGF or TGFβ1 on human and rat NP cells (healthy/injured) following the manufacturer's instructions. Briefly, NP cells were treated with CTGF or TGFβ1 alone or in combination for 48 hrs following addition of BrdU reagent O/N in each well. Incorporated BrdU in DNA of proliferating cells was determined using anti-BrdU antibody and quantified by ELISA as per the manufacturer's instructions.

[6] = tested on: rat-tail disc NP cells (healthy/injured); assay: MTT cell viability assay; assay type: cell-based; details: CTGF 100 ng/ml, TGFβ1 10 ng/ml, 48 hrs-72 hrs
Procedure: as §3

[7] = tested on: human degenerative disc NP cells; assay: Caspase 9 Lumi-Glo assay, cytokine induced; assay type: cell-based; details: 48 hrs
Procedure: Apoptosis induced in NP cells (rat and human) as result of treatment with pro-inflammatory cytokines (IL-1β and TNFα) was determined using Caspase 3/7 and Caspase 9 specific Lumi-Glo assays (Promega, Madison). Briefly, NP cells were plated and treated with either IL-1β alone or in combination with TNFα only or in presence of CTGF and TGFβ1 for 48 hrs, followed by addition of specific reagents for Caspase 3/7 and Caspase 9 as per the manufacturer's instructions. Cells were incubated for another 4 hrs at 37° C., and plates were read in a multi-well luminescence plate reader.

[8] = rat NP cells treated with IL-1β and TNFα, Western blot, FIG. 2f-2g
[9] = rat tail injured discs, western blots, FIG. 12(b)

## IL1β: Human recombinant pro-inflammatory cytokine interleukin-1 beta, purchased from Peprotech, used at 10 ng/mL
Rat NP cells [1]
  Fold regulation (IL1β vs NTC), gene Adamts8: 139.39
  Fold regulation (IL1β vs NTC), gene Cd44: 23.57
  Fold regulation (IL1β vs NTC), gene Cdh3: −6.18
  Fold regulation (IL1β vs NTC), gene Col3a1: −3.80
  Fold regulation (IL1β vs NTC), gene Col4a1: 4.24
  Fold regulation (IL1β vs NTC), gene Col4a2: 3.20
  Fold regulation (IL1β vs NTC), gene Ctgf: −2.40
  Fold regulation (IL1β vs NTC), gene Emilin1: 4.42
  Fold regulation (IL1β vs NTC), gene Hapln1: −6.01
  Fold regulation (IL1β vs NTC), gene Icam1: 6.56
  Fold regulation (IL1β vs NTC), gene Itga3: 9.22
  Fold regulation (IL1β vs NTC), gene Itga5: 6.23
  Fold regulation (IL1β vs NTC), gene Itgav: 2.14
  Fold regulation (IL1β vs NTC), gene Lamc1: 4.24
  Fold regulation (IL1β vs NTC), gene MMP3: 68.04
  Fold regulation (IL1β vs NTC), gene MMP9: 1252.77
  Fold regulation (IL1β vs NTC), gene MMP13: 36.82
  Fold regulation (IL1β vs NTC), gene Mmp11: −3.86
  Fold regulation (IL1β vs NTC), gene Ncam1: −2.00
  Fold regulation (IL1β vs NTC), gene Thbs1: −3.35
  Fold regulation (IL1β vs NTC), gene Thbs2: −4.14
  Fold regulation (IL1β vs NTC), gene Timp1: 5.04
Rat NP cells [2]; rat NP cells, 5-60 minutes, no significant change in total protein
  phosphorylation levels of c-Raf (S259), p42/44 (Thr202/Tyr204) and p38MAPK (Thr180/Tyr182): increased phosphorylation levels

## C[C@H](NC(=O)/C(C#N)=C/c1cccc(Br)n1)c1ccccc1 [STAT3 inhibitor]
Rat NP cells [2]; [8]
  IL-1β and TNFα induced MMP-3, MMP-13 and Cox2 expression in presence of inhibitor: Reduced expression
[3]
  cytokine induced Cox2 expression in presence of inhibitor: decreased expression

## COC[C@H]1OC(=O)c2coc3c2[C@@]1(C)C1=C(C3=O)[C@@H]2CCC(=O)[C@@]2(C)C[C@H]1OC(C)=O [Wortamanin]
Rat NP cells [2]; [8]
  IL-1β and TNFα induced MMP-3, MMP-13 and Cox2 expression in presence of inhibitor: reduced expression of MMP-3 and MMP-13 only

## N#CC(=C(/N)Sc1ccccc1N)/C(C#N)=C(\N)Sc1ccccc1N [U0126]
Rat NP cells [2]
  IL-1β and TNFα induced MMP-3, MMP-13 and Cox2 expression in presence of inhibitor: failed to induce

## C[S+]([O-])c1ccc(-c2nc(-c3ccncc3)c(-c3ccc(F)cc3)[nH]2)cc1 (stereo not drawn) [SB203580]
Rat NP cells [2]; IL-1β treated rat NP cells, Western blot, FIG. 2f
  MMP-3, MMP-13 and Cox2 expression in presence of inhibitor: reduced expression
[3]
  cytokine induced Cox2 expression in presence of inhibitor: decreased expression

## Cc1ccc(S(=O)(=O)/C=C/C#N)cc1 [BAY-11-7082]
Rat NP cells [2]; [8]
  IL-1β and TNFα induced MMP-3, MMP-13 and Cox2 expression in presence of inhibitor: Reduced expression
[3]
  cytokine induced Cox2 expression in presence of inhibitor: decreased expression

B1: CTGF: Human recombinant connective tissue growth factor, Peprotech cat #120-19, identified in NCCM (protein, UniProt P29279 27-349, looked up)
CCN family member 2: QNCSGPCRCPDEPAPRCPAGVSLVLDGCGCCRVCAKQLGELCTERDPCDPHKGLFCHFGSPANRKIGVCTAKDGAPCIFGGTVYRSGESFQSSCKYQCTCLDGAVGCMPLCSMDVRLPSPDCPFPRRVKLPGKCCEEWVCDEPKDQTVVGPALAAYRLEDTFGPDPTMIRANCLVQTTEWSACSKTCGMGISTRVTNDNASCRLEKQSRLCMVRPCEADLEENIKKGKKCIRTPKISKPIKFELSGCTSMKTYRAKFCGVCTDGRCCTPHRTTTLPVEFKCPDGEVMKKNMMFIKTCACHYNCPGDNDIFESLYYRKMYGDMA
Rat NP cells [2]; rat-tail NP cells treated with IL-1β and TNFα, Western blot, FIG. 5g-5h
  expression of MMP-3, MMP-13 and Cox2 proteins in presence of growth factor: reduced expression
[4]; intra-discal injection four weeks following injury, 10 weeks post-injury, vs vehicle control
  aggrecan and collagen II (immunohistochemical analysis): strong expression
[4]; intra-discal injection four weeks following injury, CTGF 100 ng/mL, TGFβ1 10 ng/mL, 10 weeks post-injury, vs PBS
  histological analysis, Safranin-O staining of NP: healthy disc, rich in NCs
[4]; [9]
  expression of MMP-13 and Cox2 in NP tissue lysates: decreased expression
  stem cell marker Oct4 in NP tissue lysates: restoration
[5]
  cell viability (MTT): increased the viability
[6]
  cell viability (MTT): increased the viability
[7]
  IL-1β and TNFα induced caspase 9 activity: significant reduction
